# Experimental data from the supplement of paper PMC10307832.
# Columns and labels:
# Experiment in all cases: relative viability (nuclei count vs DMSO), 5 days (fraction); higher = more cells survive
# [1] = compound: O=C(CCCCCCC(=O)Nc1ccccc1)NO [Vorinostat] + CS(=O)(=O)CCNCc1ccc(-c2ccc3ncnc(Nc4ccc(OCc5cccc(F)c5)c(Cl)c4)c3c2)o1 [Lapatinib] (partner 2 µM)
# Outline: (§1)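 Lung cancer cell lines, seeded in 1536-well plates, were treated the following day by pin tool with a single drug or with five library-drug doses (not always all listed) in √10 steps on top of a fixed anchor-drug dose. Cells were fixed and nuclei stained in one step after 5 days, and nuclei were counted. Relative viability is the nuclei count for treated wells divided by that for vehicle wells, reported as medians of duplicate plates.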
# [2] = compound: O=C(CCCCCCC(=O)Nc1ccccc1)NO [Vorinostat] + Cc1nc(NC(=O)N2CCC[C@H]2C(N)=O)sc1-c1ccnc(C(C)(C)C(F)(F)F)c1 [Alpelisib] (partner 2 µM)
# Outline: as §1
# [3] = compound: O=C(CCCCCCC(=O)Nc1ccccc1)NO [Vorinostat] + Cc1nc(Nc2ncc(C(=O)Nc3c(C)cccc3Cl)s2)cc(N2CCN(CCO)CC2)n1 [Dasatinib] (partner 0.075 µM)
# Outline: as §1
# [4] = compound: O=C(CCCCCCC(=O)Nc1ccccc1)NO [Vorinostat] + Nc1ncn([C@H]2C[C@H](O)[C@@H](CO)O2)c(=O)n1 [Decitabine] (partner 2 µM)
# Outline: as §1
# [5] = compound: O=C(CCCCCCC(=O)Nc1ccccc1)NO [Vorinostat] + O=C(c1cc(Cc2n[nH]c(=O)c3ccccc23)ccc1F)N1CCN(C(=O)C2CC2)CC1 [Olaparib] (partner 8 µM)
# Outline: as §1
cell line,measurement,setting,value
NCI-H2085,relative viability,[1]; first compound 0.253 µM,0.676
same,relative viability,[1]; first compound 0.8 µM,0.608
same,relative viability,[1]; first compound 2.53 µM,0.494
same,relative viability,[1]; first compound 8 µM,0.278
same,relative viability,[2]; first compound 0.253 µM,0.982
same,relative viability,[2]; first compound 0.8 µM,0.947
same,relative viability,[2]; first compound 2.53 µM,0.514
same,relative viability,[2]; first compound 8 µM,0.255
same,relative viability,[3]; first compound 0.253 µM,0.24
same,relative viability,[3]; first compound 0.8 µM,0.252
same,relative viability,[3]; first compound 2.53 µM,0.223
same,relative viability,[3]; first compound 8 µM,0.225
same,relative viability,[4]; first compound 0.253 µM,0.569
same,relative viability,[4]; first compound 0.8 µM,0.554
same,relative viability,[4]; first compound 2.53 µM,0.379
same,relative viability,[4]; first compound 8 µM,0.281
same,relative viability,[5]; first compound 0.253 µM,0.803
same,relative viability,[5]; first compound 0.8 µM,0.79
same,relative viability,[5]; first compound 2.53 µM,0.442
same,relative viability,[5]; first compound 8 µM,0.219
NCI-H2087,relative viability,[1]; first compound 0.253 µM,1.23
same,relative viability,[1]; first compound 0.8 µM,0.962
same,relative viability,[1]; first compound 2.53 µM,0.352
same,relative viability,[1]; first compound 8 µM,0.178
same,relative viability,[2]; first compound 0.253 µM,1.03
same,relative viability,[2]; first compound 0.8 µM,1.06
same,relative viability,[2]; first compound 2.53 µM,0.393
same,relative viability,[2]; first compound 8 µM,0.134
same,relative viability,[3]; first compound 0.253 µM,0.94
same,relative viability,[3]; first compound 0.8 µM,0.553
same,relative viability,[3]; first compound 2.53 µM,0.124
same,relative viability,[3]; first compound 8 µM,0.0691
same,relative viability,[4]; first compound 0.253 µM,0.271
same,relative viability,[4]; first compound 0.8 µM,0.207
same,relative viability,[4]; first compound 2.53 µM,0.105
same,relative viability,[4]; first compound 8 µM,0.051
same,relative viability,[5]; first compound 0.253 µM,0.717
same,relative viability,[5]; first compound 0.8 µM,0.52
same,relative viability,[5]; first compound 2.53 µM,0.13
same,relative viability,[5]; first compound 8 µM,0.069
NCI-H2126,relative viability,[1]; first compound 0.253 µM,0.75
same,relative viability,[1]; first compound 0.8 µM,0.733
same,relative viability,[1]; first compound 2.53 µM,0.562
same,relative viability,[1]; first compound 8 µM,0.22
same,relative viability,[2]; first compound 0.253 µM,0.733
same,relative viability,[2]; first compound 0.8 µM,0.653
same,relative viability,[2]; first compound 2.53 µM,0.365
same,relative viability,[2]; first compound 8 µM,0.199
same,relative viability,[3]; first compound 0.253 µM,0.608
same,relative viability,[3]; first compound 0.8 µM,0.566
same,relative viability,[3]; first compound 2.53 µM,0.216
same,relative viability,[3]; first compound 8 µM,0.158
same,relative viability,[4]; first compound 0.253 µM,0.58
same,relative viability,[4]; first compound 0.8 µM,0.533
same,relative viability,[4]; first compound 2.53 µM,0.332
same,relative viability,[4]; first compound 8 µM,0.19
same,relative viability,[5]; first compound 0.253 µM,0.885
same,relative viability,[5]; first compound 0.8 µM,0.905
same,relative viability,[5]; first compound 2.53 µM,0.391
same,relative viability,[5]; first compound 8 µM,0.196
NCI-H2170,relative viability,[1]; first compound 0.253 µM,0.283
same,relative viability,[1]; first compound 0.8 µM,0.273
same,relative viability,[1]; first compound 2.53 µM,0.238
same,relative viability,[1]; first compound 8 µM,0.198
same,relative viability,[2]; first compound 0.253 µM,0.823
same,relative viability,[2]; first compound 0.8 µM,0.69
same,relative viability,[2]; first compound 2.53 µM,0.235
same,relative viability,[2]; first compound 8 µM,0.141
same,relative viability,[3]; first compound 0.253 µM,0.68
same,relative viability,[3]; first compound 0.8 µM,0.459
same,relative viability,[3]; first compound 2.53 µM,0.355
same,relative viability,[3]; first compound 8 µM,0.14
same,relative viability,[4]; first compound 0.253 µM,0.415
same,relative viability,[4]; first compound 0.8 µM,0.407
same,relative viability,[4]; first compound 2.53 µM,0.321
same,relative viability,[4]; first compound 8 µM,0.129
same,relative viability,[5]; first compound 0.253 µM,0.632
same,relative viability,[5]; first compound 0.8 µM,0.554
same,relative viability,[5]; first compound 2.53 µM,0.146
same,relative viability,[5]; first compound 8 µM,0.0982
NCI-H2347,relative viability,[1]; first compound 0.253 µM,0.988
same,relative viability,[1]; first compound 0.8 µM,1.04
same,relative viability,[1]; first compound 2.53 µM,0.766
same,relative viability,[1]; first compound 8 µM,0.341
same,relative viability,[2]; first compound 0.253 µM,1.11
same,relative viability,[2]; first compound 0.8 µM,1.08
same,relative viability,[2]; first compound 2.53 µM,0.526
same,relative viability,[2]; first compound 8 µM,0.221
same,relative viability,[3]; first compound 0.253 µM,0.283
same,relative viability,[3]; first compound 0.8 µM,0.295
same,relative viability,[3]; first compound 2.53 µM,0.271
same,relative viability,[3]; first compound 8 µM,0.189
same,relative viability,[4]; first compound 0.253 µM,0.644
same,relative viability,[4]; first compound 0.8 µM,0.62
same,relative viability,[4]; first compound 2.53 µM,0.508
same,relative viability,[4]; first compound 8 µM,0.24
same,relative viability,[5]; first compound 0.253 µM,0.575
same,relative viability,[5]; first compound 0.8 µM,0.633
same,relative viability,[5]; first compound 2.53 µM,0.401
same,relative viability,[5]; first compound 8 µM,0.241
NCI-H2405,relative viability,[1]; first compound 0.253 µM,1.36
same,relative viability,[1]; first compound 0.8 µM,1.18
same,relative viability,[1]; first compound 2.53 µM,0.306
same,relative viability,[1]; first compound 8 µM,0.0576
same,relative viability,[2]; first compound 0.253 µM,1.01
same,relative viability,[2]; first compound 0.8 µM,0.835
same,relative viability,[2]; first compound 2.53 µM,0.16
same,relative viability,[2]; first compound 8 µM,0.0486
same,relative viability,[3]; first compound 0.253 µM,0.237
same,relative viability,[3]; first compound 0.8 µM,0.17
same,relative viability,[3]; first compound 2.53 µM,0.117
same,relative viability,[3]; first compound 8 µM,0.0585
same,relative viability,[4]; first compound 0.253 µM,0.794
same,relative viability,[4]; first compound 0.8 µM,0.741
same,relative viability,[4]; first compound 2.53 µM,0.478
same,relative viability,[4]; first compound 8 µM,0.121
same,relative viability,[5]; first compound 0.253 µM,1.02
same,relative viability,[5]; first compound 0.8 µM,0.888
same,relative viability,[5]; first compound 2.53 µM,0.313
same,relative viability,[5]; first compound 8 µM,0.0962
NCI-H3122,relative viability,[1]; first compound 0.253 µM,1.03
same,relative viability,[1]; first compound 0.8 µM,0.981
same,relative viability,[1]; first compound 2.53 µM,0.939
same,relative viability,[1]; first compound 8 µM,0.167
same,relative viability,[2]; first compound 0.253 µM,0.768
same,relative viability,[2]; first compound 0.8 µM,0.811
same,relative viability,[2]; first compound 2.53 µM,0.393
same,relative viability,[2]; first compound 8 µM,0.208
same,relative viability,[3]; first compound 0.253 µM,1.11
same,relative viability,[3]; first compound 0.8 µM,0.69
same,relative viability,[3]; first compound 2.53 µM,0.0421
same,relative viability,[3]; first compound 8 µM,0.0399
same,relative viability,[4]; first compound 0.253 µM,0.45
same,relative viability,[4]; first compound 0.8 µM,0.582
same,relative viability,[4]; first compound 2.53 µM,0.269
same,relative viability,[4]; first compound 8 µM,0.117
same,relative viability,[5]; first compound 0.253 µM,0.543
same,relative viability,[5]; first compound 0.8 µM,0.574
same,relative viability,[5]; first compound 2.53 µM,0.319
same,relative viability,[5]; first compound 8 µM,0.0668
PC-3 [JPC-3],relative viability,[1]; first compound 0.253 µM,0.456
same,relative viability,[1]; first compound 0.8 µM,0.441
same,relative viability,[1]; first compound 2.53 µM,0.326
same,relative viability,[1]; first compound 8 µM,0.252
same,relative viability,[2]; first compound 0.253 µM,1.01
same,relative viability,[2]; first compound 0.8 µM,0.979
same,relative viability,[2]; first compound 2.53 µM,0.572
same,relative viability,[2]; first compound 8 µM,0.259
same,relative viability,[3]; first compound 0.253 µM,1
same,relative viability,[3]; first compound 0.8 µM,1
same,relative viability,[3]; first compound 2.53 µM,0.593
same,relative viability,[3]; first compound 8 µM,0.227
same,relative viability,[4]; first compound 0.253 µM,0.807
same,relative viability,[4]; first compound 0.8 µM,0.71
same,relative viability,[4]; first compound 2.53 µM,0.429
same,relative viability,[4]; first compound 8 µM,0.381
same,relative viability,[5]; first compound 0.253 µM,1.13
same,relative viability,[5]; first compound 0.8 µM,1.05
same,relative viability,[5]; first compound 2.53 µM,0.379
same,relative viability,[5]; first compound 8 µM,0.326
